Results reported in PubChem BioAssay AID1996.
Values after ≈ are worked out from the molar mass of the structure shown.

details: buffer; pH 7.4; 200.0 µM

Compound	solubility kinetic [µg/mL]
CC(C)Cc1csc(NC(=O)C(C)C)c1C(=O)O	> 40.4
Cc1ccc(C)c(OC(=O)C2CSC3(C)CCC(=O)N23)c1C (centres undefined)	44.2 (≈ 138 µM)
CCCN(CC(=O)Nc1ccccc1OC)C(=O)c1ccccn1	> 49.1
Cc1ccc(-c2cc(NC(=O)c3ccccc3)on2)cc1	< 0.3
COc1cc2c(cc1OC)C(NC(=O)C(F)(F)F)CNC2=O (centres undefined)	> 47.7
CCOc1ccc(NC(=O)Cc2ccc(S(=O)(=O)N3CCCCC3)cc2)cc1OCC	7 (≈ 15.7 µM)
OC1CCCCC1N1CCC(c2ccccc2)CC1 (centres undefined)	> 38.9
COC(=O)c1ccccc1NC(=O)c1ccc(F)cc1	< 0.6
COc1ccc(OC)c2nc(-c3ccncc3)ccc12	> 39.9
Cc1cc(NS(=O)(=O)c2ccc(NC(=O)COc3ccc(C#N)cc3)cc2)nc(C)n1	> 65.6
O=C(O)CC(CC(=O)Nc1ccc2ccccc2n1)c1ccccc1 (centres undefined)	> 50.2
CCOC(=O)c1c(C=O)c2ccccc2n1Cc1ccccc1	< 0.7
CCCOc1ccc(-c2csc3nc[nH]c(=O)c23)cc1	2.9 (≈ 10.1 µM)
NS(=O)(=O)c1cc(C(=O)OC2CCOC2=O)ccc1Cl (centres undefined)	> 48
COc1ccc(Cn2c(=O)cc(C)[nH]c2=S)cc1	20.2 (≈ 77 µM)
O=C(Nc1ccc(Cl)cc1)C1CCN(C(=O)c2cccs2)CC1	12.9 (≈ 37 µM)
CN(C)c1cc(-c2ccccc2)nc(-c2ccccc2)n1	< 0.2
COc1cc2[nH]c(=S)n(Cc3ccc(C)cc3)c(=O)c2cc1OC	< 0.4

Compound	solubility kinetic [µg/mL]
CCN1CCCC1CNC(=O)c1cc2ccc(OC)cc2[nH]1 (centres undefined)	> 45.2
CCCCS(=O)(=O)N1CCCC(C(=O)Oc2ccccc2)C1 (centres undefined)	13.9 (≈ 42.7 µM)
CCc1ccccc1NC(=O)CSc1nc(C)c(C)o1	> 43.6
Cc1ccc2cccc(OCC(=O)N3CCc4ccccc43)c2n1	< 0.3
O=c1c(Cl)c2oc3ccccc3nc-2c2ccccc12	4.2 (≈ 14.9 µM)
COc1ccc(C(=O)NCCNC(=O)c2ccc(C)nc2)cc1	> 47
CC(=O)c1ccc(Oc2ncnc(N)c2[N+](=O)[O-])cc1	2.3 (≈ 8.39 µM)
Cc1ccc(OCC(=O)Nc2ccc3oc(=O)ccc3c2)cc1C	< 0.7
Cc1cccc(NC(=O)c2ccc(NCCO)c([N+](=O)[O-])c2)n1	3.4 (≈ 10.7 µM)
CS(=O)(=O)/C(C#N)=C/c1cccn1S(=O)(=O)c1ccccc1	6.8 (≈ 20.2 µM)
CC(=O)c1ccccc1NS(=O)(=O)c1ccc2c(c1)CC(=O)N2	29.9 (≈ 90.5 µM)
O=C(OCC(=O)N1CCOCC1)c1ccc(Br)cc1	> 49.2
CN(C)S(=O)(=O)c1cccc(NC(=O)COC(=O)[C@H](Cc2ccccc2)NC(=O)c2ccco2)c1	24.2 (≈ 48.4 µM)
Cn1c(C(=O)N2CCN(c3ccccc3)CC2)cc2cc(Cl)ccc21	4.4 (≈ 12.4 µM)
NS(=O)(=O)c1ccc2c(c1)C(=NO)c1cc(S(N)(=O)=O)ccc1-2	4.6 (≈ 13 µM)
COc1ccc(CNC(=O)c2cc3ccccc3o2)cc1OC	> 46.7
CCc1sc(-c2ccccc2)nc1C(=O)OC	< 0.5

Continued, values first:

solubility kinetic [µg/mL]	Compound
> 36.2	COCC(=O)Nc1ccccc1-c1ccccc1
23.1 (≈ 67.3 µM)	CCOC(=O)C1CCCN(Cc2cc(=O)oc3cc(C)c(C)cc23)C1 (centres undefined)
39.3 (≈ 127 µM)	CCc1ccc(OC(=O)CN2C(=O)c3ccccc3C2=O)cc1
0.5 (≈ 1.66 µM)	CSc1nc2ccc(NC(=O)c3ccccn3)cc2s1
> 50.9	Cc1cc(C)cc(Oc2coc3c(CN(C)C)c(O)ccc3c2=O)c1
20.1 (≈ 59 µM)	CC(CCc1ccccc1)NC(=O)CN1CCSc2ccccc21 (centres undefined)
13.1 (≈ 51.9 µM)	CC(=O)Nc1ccc2oc(-c3ccccc3)nc2c1
31.8 (≈ 108 µM)	CC(=O)N1c2ccccc2C(CBr)=CC1(C)C
> 41.4	CC(C)C(=O)Nc1ccc([N+](=O)[O-])c(C(F)(F)F)c1
> 50.3	CCN(CC(=O)Nc1c(F)cccc1F)C(=O)c1ccc(=O)[nH]c1
> 66.5	CCC[C@@H]1C[C@@H](C(=O)N[C@@H]([C@H]2O[C@H](SC)[C@H](O)[C@@H](O)[C@@H]2O)[C@@H](C)O)N(C)C1.Cl
> 36.4	S=C(NCC1CCCO1)NC1CCCCC1 (centres undefined)
> 47	Cc1cccc(OCC(=O)NCCNC(=O)c2cccnc2)c1
> 45.4	O=C(O)CSc1ncnc2sc(-c3ccccc3)cc12
> 42.5	Cc1cccc(C)c1NC(=O)CNC(=O)c1ccncc1
8.9 (≈ 27.4 µM)	C#CCOc1nc2c(c(=O)n(C)c(=O)n2C)n1Cc1ccccc1
> 35.1	COc1cc(C)nc(-n2nc(C)cc2OC)n1
9.5 (≈ 30.6 µM)	NC(=O)c1ccccc1OCC(=O)Nc1ccc2c(c1)CCC2
> 43.9	O=C(CSc1ccc(Cl)cc1)NCc1ccncc1
> 43.4	O=C(CNC(=O)c1ccccc1F)N/N=C/c1ccco1
30.4 (≈ 93.4 µM)	CCCC(=O)Nc1ccc(S(=O)(=O)Nc2nccs2)cc1
14.2 (≈ 49.4 µM)	COc1ccc(CC(=O)Oc2ccccc2[N+](=O)[O-])cc1
38.5 (≈ 142 µM)	COC(=O)c1cc(OC)c(OC)c(OC)c1[N+](=O)[O-]
39.4 (≈ 137 µM)	CCC(=O)Nc1ccc(C(=O)CN2CCC(C)CC2)cc1
